Converted amounts (≈) assume the structure as drawn. Where two headings read alike, the source gives them in different places.
What was measured:
Trypanosoma rhodesiense = experiment: In vitro antitrypanosomal screening, semi-automated microtest system; type: cell-based
RVFV = experiment: microbe, parasite or virus in culture; type: cell-based; settings: Rift Valley fever virus, SW13, read-out: Concentration required to give 80% plaque reduction
YF = experiment: microbe, parasite or virus in culture; type: cell-based; settings: MK2, read-out: Concentration required to give 80% plaque reduction
VEE = experiment: microbe, parasite or virus in culture; type: cell-based; settings: Vero; read-out: Concentration required to give 80% plaque reduction
DEN-2 = experiment: microbe, parasite or virus in culture; settings: SW13, read-out: Concentration required to give 80% plaque reduction
PICH = experiment: microbe, parasite or virus in culture; settings: Vero, read-out: Concentration required to give 80% plaque reduction
Plasmodium falciparum = experiment: In vitro antimalarial screening, semi-automated microdilution technique; type: cell-based; settings: column head in nanograms/ml, footnote in μg/ml, read-out: ED50 (out-of-range entries)
Description: Desjardins, R. E.; Canfield, C. J.; Haynes, J. D.; and Chulay, J. D.: Quantitative Assessment of Antimalarial Activity In Vitro by A Semi-automated Microdilution Technique. Antimicrob. Ag. & Chemother., 16:710-718, 1979.

malaria = settings: A Survey of Antimalarial Drugs, 1941-1945; cited from earlier work
[1] = 3H-Thymidine, read-out: ED50, 3H-Thymidine (out-of-range entries)

SMILES: Nc1ccc(S(=O)(=O)Nc2ncccn2)cc1 [aluminum sulfadiazine]
- IC50 (Trypanosoma rhodesiense; [1]): > 12.5 µg/mL

SMILES: COc1cnc(NS(=O)(=O)c2ccc(N)cc2)nc1 [sulfameter]
- IC50 (Trypanosoma rhodesiense; [1]): > 12.5 µg/mL

SMILES: NC(=O)c1ncn([C@@H]2O[C@H](CO)[C@@H](O)[C@H]2O)n1 [Ribavirin]
- EC80 (RVFV): 25 µg/mL (≈ 102 µM)
- EC80 (YF): 50 µg/mL (≈ 205 µM)
- EC80 (VEE): 100 µg/mL (≈ 409 µM)
- EC80 (DEN-2): 100 µg/mL (≈ 409 µM)
- EC80 (PICH): 100 µg/mL (≈ 409 µM)

SMILES: Nc1cccc(S(=O)(=O)Nc2ncc(Cl)cn2)c1 [metachloridine, 5-chloro-2-metanilamidopyrimidine]
- IC50 (Plasmodium falciparum): > 12.5 µg/mL
- IC50 (Trypanosoma rhodesiense; [1]): > 12.5 µg/mL
- IC50 (Trypanosoma rhodesiense; 14C-Leucine, read-out: ED50, 14C-Leucine (out-of-range entries)): > 12.5 µg/mL
- antimalarial activity in screening tests (malaria): sufficiently active in screening tests for antimalarial effects

SMILES: Nc1ccc(S(=O)(=O)Nc2ncccn2)cc1 [sulfadiazine, 2-sulfanilaminidopyrimidine]
- IC50 (Plasmodium falciparum): > 12.5 µg/mL

— patent publication US4415565A, “Silver metachloridine in treatment of infections” (The United States of America as represented by the …, priority 1981, dated 1983)
